# Results: ChEMBL document CHEMBL3045857, “Monitoring of spirodiclofen susceptibility in field populations of European red mites, Panonychus ulmi (Koch) (Acari: Tetranychidae), and the cross-resistance pattern of a laboratory-selected strain” (2011)
# Columns and labels:
# Type in all cases: functional
# Panonychus ulmi [1] = assay: Insecticidal activity against Panonychus ulmi HS in plum tree leaf assessed as larvae mortality compound treated by spray application measured after 7 to 8 days treatment
# Panonychus ulmi [2] = assay: Resistance ratio, LC50 for egg Panonychus ulmi Ge16/09 to LC50 for egg Panonychus ulmi HS
# Panonychus ulmi [3] = assay: Resistance ratio, LC50 for larvae Panonychus ulmi Ge15/09 to LC50 for larvae Panonychus ulmi HS
# Panonychus ulmi [4] = assay: Insecticidal activity against Panonychus ulmi Ge16/09 in plum tree leaf assessed as egg mortality compound treated by spray application measured after 7 to 8 days treatment
# Panonychus ulmi [5] = assay: Resistance ratio, LC50 for larvae Panonychus ulmi Ge13/09 to LC50 for larvae Panonychus ulmi HS
# Panonychus ulmi [6] = assay: Insecticidal activity against Panonychus ulmi Ge15/09 in plum tree leaf assessed as egg mortality compound treated by spray application measured after 7 to 8 days treatment
# Panonychus ulmi [7] = assay: Resistance ratio, LC50 for egg Panonychus ulmi Ge13/09 to LC50 for egg Panonychus ulmi HS
# Panonychus ulmi [8] = assay: Resistance ratio, LC50 for egg Panonychus ulmi Ge15/09 to LC50 for egg Panonychus ulmi HS
# Panonychus ulmi [9] = assay: Insecticidal activity against Panonychus ulmi Ge13/09 in plum tree leaf assessed as larvae mortality compound treated by spray application measured after 7 to 8 days treatment
# Panonychus ulmi [10] = assay: Resistance ratio, LC50 for egg Panonychus ulmi Ge14/09 to LC50 for egg Panonychus ulmi HS
# Panonychus ulmi [11] = assay: Insecticidal activity against Panonychus ulmi HS in plum tree leaf assessed as egg mortality compound treated by spray application measured after 7 to 8 days treatment
# Panonychus ulmi [12] = assay: Insecticidal activity against Panonychus ulmi Ge15/09 in plum tree leaf assessed as larvae mortality compound treated by spray application measured after 7 to 8 days treatment
# Panonychus ulmi [13] = assay: Resistance ratio, LC50 for larvae Panonychus ulmi Ge14/09 to LC50 for larvae Panonychus ulmi HS
# Panonychus ulmi [14] = assay: Insecticidal activity against Panonychus ulmi Ge14/09 in plum tree leaf assessed as larvae mortality compound treated by spray application measured after 7 to 8 days treatment
# Panonychus ulmi [15] = assay: Insecticidal activity against Panonychus ulmi PSR-TK in plum tree leaf assessed as mortality at egg stage compound treated by spray application measured after 7 to 8 days treatment
# Panonychus ulmi [16] = assay: Resistance ratio, LC50 for egg Panonychus ulmi HS to LC50 for egg Panonychus ulmi PSR TK
# Panonychus ulmi [17] = assay: Insecticidal activity against Panonychus ulmi Ge14/09 in plum tree leaf assessed as egg mortality compound treated by spray application measured after 7 to 8 days treatment
# Panonychus ulmi [18] = assay: Resistance ratio, LC50 for larvae Panonychus ulmi HS to LC50 for larvae Panonychus ulmi PSR TK
# Panonychus ulmi [19] = assay: Insecticidal activity against Panonychus ulmi PSR-TK in plum tree leaf assessed as mortality at larvae stage compound treated by spray application measured after 7 to 8 days treatment
# Panonychus ulmi [20] = assay: Resistance ratio, LC50 for larvae Panonychus ulmi Ge16/09 to LC50 for larvae Panonychus ulmi HS
# Panonychus ulmi [21] = assay: Insecticidal activity against Panonychus ulmi Ge13/09 in plum tree leaf assessed as egg mortality compound treated by spray application measured after 7 to 8 days treatment
# Panonychus ulmi [22] = assay: Insecticidal activity against Panonychus ulmi Ge16/09 in plum tree leaf assessed as larvae mortality compound treated by spray application measured after 7 to 8 days treatment
# Panonychus ulmi [23] = assay: Resistance ratio, LC50 for adult Panonychus ulmi HS to LC50 for adult Panonychus ulmi GE 16/09
# Panonychus ulmi [24] = assay: Resistance ratio, LC50 for adult Panonychus ulmi HS to LC50 for adult Panonychus ulmi PSR TK
# Panonychus ulmi [25] = assay: Insecticidal activity against Panonychus ulmi HS in plum tree leaf assessed as mortality at adult stage compound treated by spray application measured after 7 to 8 days treatment
# Panonychus ulmi [26] = assay: Insecticidal activity against Panonychus ulmi PSR-TK in plum tree leaf assessed as mortality at adult stage compound treated by spray application measured after 7 to 8 days treatment
smiles,measurement,setting,value
CCC(C)(C)C(=O)OC1=C(c2ccc(Cl)cc2Cl)C(=O)OC12CCCCC2 [SPIRODICLOFEN],LC50,Panonychus ulmi [1],1.39 mg/L
same,RatioLC50,Panonychus ulmi [2],1.2
same,RatioLC50,Panonychus ulmi [3],27
same,LC50,Panonychus ulmi [4],0.66 mg/L
same,RatioLC50,Panonychus ulmi [5],12
same,LC50,Panonychus ulmi [6],0.96 mg/L
same,RatioLC50,Panonychus ulmi [7],1.1
same,RatioLC50,Panonychus ulmi [8],1.8
same,LC50,Panonychus ulmi [9],12.1 mg/L
same,RatioLC50,Panonychus ulmi [10],2.9
same,LC50,Panonychus ulmi [11],0.52 mg/L
same,LC50,Panonychus ulmi [12],27.6 mg/L
same,RatioLC50,Panonychus ulmi [13],33
same,LC50,Panonychus ulmi [14],33 mg/L
same,LC50,Panonychus ulmi [15],> 10000 mg/L
same,RatioLC50,Panonychus ulmi [16],56
same,LC50,Panonychus ulmi [17],1.53 mg/L
same,RatioLC50,Panonychus ulmi [18],>7000
same,LC50,Panonychus ulmi [19],> 10000 mg/L
same,RatioLC50,Panonychus ulmi [20],59
same,LC50,Panonychus ulmi [21],0.59 mg/L
same,LC50,Panonychus ulmi [22],59.6 mg/L
C[C@@H]1[C@@H](c2ccc(Cl)cc2)SC(=O)N1C(=O)NC1CCCCC1 [HEXYTHIAZOX],LC50,Panonychus ulmi [1],0.43 mg/L
same,LC50,Panonychus ulmi [11],5.99 mg/L
same,LC50,Panonychus ulmi [15],4.32 mg/L
same,RatioLC50,Panonychus ulmi [16],>1600
same,RatioLC50,Panonychus ulmi [18],>20000
same,LC50,Panonychus ulmi [19],4.05 mg/L
same,RatioLC50,Panonychus ulmi [23],>20000
CCCCCCCCCCCCC1=C(OC(C)=O)C(=O)c2ccccc2C1=O [ACEQUINOCYL],RatioLC50,Panonychus ulmi [24],3
same,LC50,Panonychus ulmi [25],2.75 mg/L
same,LC50,Panonychus ulmi [26],1.3 mg/L
Cc1cc(C)c(C2=C(OC(=O)CC(C)(C)C)C3(CCCC3)OC2=O)c(C)c1 [SPIROMESIFEN],LC50,Panonychus ulmi [1],0.13 mg/L
same,LC50,Panonychus ulmi [11],1.07 mg/L
same,LC50,Panonychus ulmi [15],0.36 mg/L
same,RatioLC50,Panonychus ulmi [16],4
same,RatioLC50,Panonychus ulmi [18],30.4
same,LC50,Panonychus ulmi [19],3.73 mg/L
CCOc1cc(C(C)(C)C)ccc1C1COC(c2c(F)cccc2F)=N1 (stereo not given) [ETOXAZOLE],LC50,Panonychus ulmi [1],0.15 mg/L
same,RatioLC50,Panonychus ulmi [18],10
same,LC50,Panonychus ulmi [19],> 10000 mg/L
CCOC(=O)OC1=C(c2cc(C)ccc2C)C(=O)N[C@]12CC[C@@H](OC)CC2 [SPIROTETRAMAT],LC50,Panonychus ulmi [1],1.09 mg/L
same,RatioLC50,Panonychus ulmi [18],3
same,LC50,Panonychus ulmi [19],538 mg/L
Cc1nn(C)c(/C(OC(=O)C(C)(C)C)=C(\C#N)c2ccc(C(C)(C)C)cc2)c1C [CYENOPYRAFEN],RatioLC50,Panonychus ulmi [24],23.5
same,LC50,Panonychus ulmi [25],0.3 mg/L
same,LC50,Panonychus ulmi [26],7.13 mg/L
CCc1nn(C)c(C(=O)NCc2ccc(C(C)(C)C)cc2)c1Cl [TEBUFENPYRAD],RatioLC50,Panonychus ulmi [24],30.3
same,LC50,Panonychus ulmi [25],0.37 mg/L
same,LC50,Panonychus ulmi [26],11.2 mg/L
Clc1ccccc1-c1nnc(-c2ccccc2Cl)nn1 [CLOFENTEZINE],LC50,Panonychus ulmi [1],5.53 mg/L
same,LC50,Panonychus ulmi [11],61.3 mg/L
same,LC50,Panonychus ulmi [15],> 10000 mg/L
same,RatioLC50,Panonychus ulmi [16],>160
same,RatioLC50,Panonychus ulmi [18],>1800
same,LC50,Panonychus ulmi [19],> 10000 mg/L
same,RatioLC50,Panonychus ulmi [23],>3900
COc1ccc(-c2ccccc2)cc1NNC(=O)OC(C)C [BIFENAZATE],RatioLC50,Panonychus ulmi [24],1
same,LC50,Panonychus ulmi [25],1.42 mg/L
same,LC50,Panonychus ulmi [26],1.3 mg/L
